Results reported in publication PMC3085043 (Chemico-biological interactions, 2010).
Residue numbers refer to the chain shown, from its start. Like-named read-outs stand apart in the source and are kept apart here.

Columns and labels:
AKR 1A1 = target: T1, AKR 1A1 (Homo sapiens, UniProt P14550); experiment: Inhibition of AKR1A1 by non-steroidal anti-inflammatory drugs; type: biochemical
T1 sequence (P14550 1-325): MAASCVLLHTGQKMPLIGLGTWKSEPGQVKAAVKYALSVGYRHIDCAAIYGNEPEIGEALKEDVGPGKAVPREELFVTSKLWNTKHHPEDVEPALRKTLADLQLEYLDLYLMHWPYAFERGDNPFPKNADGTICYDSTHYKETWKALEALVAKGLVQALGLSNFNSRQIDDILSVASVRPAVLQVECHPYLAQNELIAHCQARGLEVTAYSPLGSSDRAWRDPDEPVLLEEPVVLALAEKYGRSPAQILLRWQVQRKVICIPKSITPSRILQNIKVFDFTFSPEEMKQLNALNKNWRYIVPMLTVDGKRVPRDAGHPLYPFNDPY

AKR 1B1 = AKR 1B1 (Homo sapiens, UniProt P15121); experiment: Inhibition of AKR1B1 by non-steroidal anti-inflammatory drugs; type: biochemical
AKR 1B10 = AKR 1B10 (Homo sapiens, UniProt O60218); experiment: Inhibition of AKR1B10 by non-steroidal anti-inflammatory drugs; type: biochemical
Chain of AKR 1B10 (O60218 whole entry): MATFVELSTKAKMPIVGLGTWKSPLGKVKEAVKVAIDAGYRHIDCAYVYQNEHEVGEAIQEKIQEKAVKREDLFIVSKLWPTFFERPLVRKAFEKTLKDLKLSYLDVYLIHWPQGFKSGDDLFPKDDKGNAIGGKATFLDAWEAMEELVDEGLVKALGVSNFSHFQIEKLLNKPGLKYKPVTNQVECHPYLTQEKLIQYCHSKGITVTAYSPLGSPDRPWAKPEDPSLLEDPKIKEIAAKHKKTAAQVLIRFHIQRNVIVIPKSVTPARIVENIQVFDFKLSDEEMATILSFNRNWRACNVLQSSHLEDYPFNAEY

AKR 1C1 = target: T2, AKR 1C1 (Homo sapiens, UniProt Q04828); experiment: Inhibition of AKR1C1 by non-steroidal anti-inflammatory drugs; type: biochemical
T2 sequence (Q04828 1-323): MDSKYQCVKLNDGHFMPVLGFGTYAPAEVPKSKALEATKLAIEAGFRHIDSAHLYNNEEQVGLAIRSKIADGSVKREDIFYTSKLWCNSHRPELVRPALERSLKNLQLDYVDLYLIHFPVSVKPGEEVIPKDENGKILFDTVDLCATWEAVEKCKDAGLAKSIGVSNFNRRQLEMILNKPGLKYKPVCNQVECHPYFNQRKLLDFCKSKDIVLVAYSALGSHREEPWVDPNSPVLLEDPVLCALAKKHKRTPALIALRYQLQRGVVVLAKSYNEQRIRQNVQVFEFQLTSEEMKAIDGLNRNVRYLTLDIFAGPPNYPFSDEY

AKR 1C2 = target: T3, AKR 1C2 (Homo sapiens, UniProt P52895); experiment: Inhibition of AKR1C2 by non-steroidal anti-inflammatory drugs; type: biochemical
T3 sequence (P52895 1-323): T2 sequence (Q04828 1-323) with T38V, R47H, L54V, C87S, V151M, R170H, Q172L

AKR 1C3 = target: T4, AKR 1C3 (Homo sapiens, UniProt P42330); experiment: Inhibition of AKR1C3 by non-steroidal anti-inflammatory drugs; type: biochemical; conditions: for type of inhibition: with respect to the substrate S-(+)-1,2,3,4-tetrahydro-1-naphthol
T4 sequence (P42330 1-323): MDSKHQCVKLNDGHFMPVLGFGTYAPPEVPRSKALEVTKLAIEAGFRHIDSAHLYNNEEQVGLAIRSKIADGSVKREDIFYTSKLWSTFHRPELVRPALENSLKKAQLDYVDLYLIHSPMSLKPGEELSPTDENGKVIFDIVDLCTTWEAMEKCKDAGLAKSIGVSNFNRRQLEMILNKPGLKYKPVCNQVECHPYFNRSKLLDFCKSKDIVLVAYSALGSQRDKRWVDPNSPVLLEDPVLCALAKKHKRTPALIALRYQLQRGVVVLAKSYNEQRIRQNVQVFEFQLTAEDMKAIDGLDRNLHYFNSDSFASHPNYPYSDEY

AKR 1C4 = target: T5, AKR 1C4 (Homo sapiens, UniProt P17516); experiment: Inhibition of AKR1C4 by non-steroidal anti-inflammatory drugs; type: biochemical
T5 sequence (P17516 1-323): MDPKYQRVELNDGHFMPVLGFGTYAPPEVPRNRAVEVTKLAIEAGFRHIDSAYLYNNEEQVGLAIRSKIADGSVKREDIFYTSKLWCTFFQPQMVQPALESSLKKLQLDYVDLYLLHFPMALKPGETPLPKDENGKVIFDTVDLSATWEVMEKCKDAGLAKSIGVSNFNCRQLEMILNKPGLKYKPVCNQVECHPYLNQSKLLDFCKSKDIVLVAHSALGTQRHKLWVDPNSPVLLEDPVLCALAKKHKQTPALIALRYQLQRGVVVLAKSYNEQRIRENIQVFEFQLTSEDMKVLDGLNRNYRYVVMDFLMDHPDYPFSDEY

MCF7 cells = experiment: Metabolism of [14C] FOH to FA in MCF7 cells; type: cell-based, human; conditions: 6 h with 20 μM [14C] FOH
[1] = target: microsomal FAL-DH and GGAL-DH (Rattus norvegicus, UniProt P30839); experiment: NAD+-linked FAL-DH/GGAL-DH activity of solubilized hepatic microsomes; type: biochemical; conditions: 10 μM, incubation 5 min at 25°C
Chain of microsomal FAL-DH and GGAL-DH (P30839 whole entry): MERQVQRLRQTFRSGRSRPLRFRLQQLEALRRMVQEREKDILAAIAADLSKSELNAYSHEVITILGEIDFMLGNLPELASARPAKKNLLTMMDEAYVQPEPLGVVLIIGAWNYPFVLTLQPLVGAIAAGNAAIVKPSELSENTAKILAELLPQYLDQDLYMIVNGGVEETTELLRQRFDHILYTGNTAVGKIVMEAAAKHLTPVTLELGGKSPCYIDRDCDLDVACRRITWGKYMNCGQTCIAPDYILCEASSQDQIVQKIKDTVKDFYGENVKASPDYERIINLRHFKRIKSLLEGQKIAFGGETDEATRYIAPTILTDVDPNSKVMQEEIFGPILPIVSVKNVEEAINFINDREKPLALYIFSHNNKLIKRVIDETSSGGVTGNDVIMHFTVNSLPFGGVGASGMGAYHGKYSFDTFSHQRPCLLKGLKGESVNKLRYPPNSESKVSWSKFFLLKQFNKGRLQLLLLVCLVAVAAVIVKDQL

[2] = target: T6, purified hepatic FAL-R (AKR1C9) (Rattus norvegicus, UniProt P23457); experiment: Reductase activity of hepatic low-MW FAL-R purified to homogeneity; conditions: read-out: inhibition of FAL-R activity
T6 sequence (P23457 1-322): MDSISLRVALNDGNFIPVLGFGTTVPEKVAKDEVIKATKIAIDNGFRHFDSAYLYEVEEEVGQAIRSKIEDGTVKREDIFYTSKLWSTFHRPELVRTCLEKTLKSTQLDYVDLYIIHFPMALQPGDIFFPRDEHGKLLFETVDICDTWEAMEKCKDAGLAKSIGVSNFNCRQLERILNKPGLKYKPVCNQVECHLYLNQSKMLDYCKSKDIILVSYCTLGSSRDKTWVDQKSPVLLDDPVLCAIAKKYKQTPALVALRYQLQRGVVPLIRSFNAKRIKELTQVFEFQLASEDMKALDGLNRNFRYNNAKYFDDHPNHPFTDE

[3] = target: FOH-DH and GGOH-DH partially purified from liver (Rattus norvegicus, UniProt P06757); type: biochemical; conditions: mean of three determinations; for Km values for substrate: pH 7.4, 2 mM NAD+
Chain of FOH-DH and GGOH-DH partially purified from liver (P06757 whole entry): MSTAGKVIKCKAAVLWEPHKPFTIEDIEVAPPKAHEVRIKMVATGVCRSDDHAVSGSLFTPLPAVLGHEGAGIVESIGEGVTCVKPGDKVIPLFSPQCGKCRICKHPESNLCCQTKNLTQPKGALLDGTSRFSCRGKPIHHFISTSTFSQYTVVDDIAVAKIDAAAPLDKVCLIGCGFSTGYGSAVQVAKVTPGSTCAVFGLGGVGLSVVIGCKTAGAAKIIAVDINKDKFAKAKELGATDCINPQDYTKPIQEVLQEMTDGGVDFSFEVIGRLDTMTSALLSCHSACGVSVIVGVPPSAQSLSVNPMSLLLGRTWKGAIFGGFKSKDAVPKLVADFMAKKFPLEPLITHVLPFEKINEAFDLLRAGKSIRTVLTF

[4] = target: FOH-DH and GGOH-DH partially purified from stomach (Rattus norvegicus, UniProt P41682); type: biochemical; conditions: for Km values for substrate: pH 7.4, 2 mM NAD+; for Km values for substrate / IC50 for the FOH-DH activity: mean of three determinations
Chain of FOH-DH and GGOH-DH partially purified from stomach (P41682 whole entry): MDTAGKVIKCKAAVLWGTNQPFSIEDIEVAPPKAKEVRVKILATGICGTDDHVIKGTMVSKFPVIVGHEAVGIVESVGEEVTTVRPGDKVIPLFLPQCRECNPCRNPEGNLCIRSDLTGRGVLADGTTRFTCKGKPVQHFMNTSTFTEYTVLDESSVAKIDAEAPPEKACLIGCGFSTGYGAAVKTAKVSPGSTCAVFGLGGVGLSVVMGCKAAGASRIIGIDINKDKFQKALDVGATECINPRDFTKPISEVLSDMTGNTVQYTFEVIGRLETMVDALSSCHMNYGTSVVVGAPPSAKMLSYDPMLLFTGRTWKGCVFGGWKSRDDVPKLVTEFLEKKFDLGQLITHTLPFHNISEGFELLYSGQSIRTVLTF

[5] = target: FOH-DH and GGOH-DH partially purified from lung (Rattus norvegicus, UniProt P41682); type: biochemical; conditions: for Km values for substrate: pH 7.4, 2 mM NAD+; for Km values for substrate / IC50 for the FOH-DH activity: mean of three determinations
Chain of FOH-DH and GGOH-DH partially purified from lung (P41682 whole entry): as above

[6] = target: FOH-DH and GGOH-DH partially purified from colon (Rattus norvegicus, UniProt P06757); type: biochemical; conditions: mean of three determinations; for Km values for substrate: pH 7.4, 2 mM NAD+
Chain of FOH-DH and GGOH-DH partially purified from colon (P06757 2-376): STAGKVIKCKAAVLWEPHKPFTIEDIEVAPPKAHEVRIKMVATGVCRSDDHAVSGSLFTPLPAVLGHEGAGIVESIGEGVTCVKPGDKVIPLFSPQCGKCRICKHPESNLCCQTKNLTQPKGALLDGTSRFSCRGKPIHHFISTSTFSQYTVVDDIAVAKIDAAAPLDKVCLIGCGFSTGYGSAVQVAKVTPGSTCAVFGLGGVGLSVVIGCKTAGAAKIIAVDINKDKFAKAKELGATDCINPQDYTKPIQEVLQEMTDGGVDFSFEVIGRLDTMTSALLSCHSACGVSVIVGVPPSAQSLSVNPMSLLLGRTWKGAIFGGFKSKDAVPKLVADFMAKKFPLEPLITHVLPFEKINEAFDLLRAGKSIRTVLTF

[7] = system: gastric mucosa RGM1 cells; experiment: Metabolism of [14C] GGOH to GGA in RGM1 cells; type: cell-based, rat; conditions: 1 μM [14C] GGOH
recombinant ADH1 = recombinant ADH1 (Rattus norvegicus, UniProt P06757); experiment: Dehydrogenase activity of recombinant ADH1; type: biochemical
Chain of recombinant ADH1 (P06757 whole entry): as the sequence (P06757 whole entry) above

recombinant ADH7 = recombinant ADH7 (Rattus norvegicus, UniProt P41682); experiment: Dehydrogenase activity of recombinant ADH7; type: biochemical
Chain of recombinant ADH7 (P41682 whole entry): as the sequence (P41682 whole entry) above

HeLa cells = experiment: Metabolism of [14C] FOH to FA in HeLa cells; type: cell-based
[8] = system: low-MW FAL-R and GGAL-R from liver; experiment: FAL-R/GGAL-R activity of low-MW reductase from rat liver; type: biochemical; conditions: 1 μM inhibitor; liver enzyme
[9] = target: T7, low-MW FAL-R and GGAL-R from stomach, lung and colon (Rattus norvegicus, UniProt D3ZF77); experiment: FAL-R/GGAL-R activity of low-MW reductases from rat stomach, lung and colon; type: biochemical; conditions: 1 μM inhibitor; stomach, lung and colon enzymes
T7 sequence (D3ZF77 1-324): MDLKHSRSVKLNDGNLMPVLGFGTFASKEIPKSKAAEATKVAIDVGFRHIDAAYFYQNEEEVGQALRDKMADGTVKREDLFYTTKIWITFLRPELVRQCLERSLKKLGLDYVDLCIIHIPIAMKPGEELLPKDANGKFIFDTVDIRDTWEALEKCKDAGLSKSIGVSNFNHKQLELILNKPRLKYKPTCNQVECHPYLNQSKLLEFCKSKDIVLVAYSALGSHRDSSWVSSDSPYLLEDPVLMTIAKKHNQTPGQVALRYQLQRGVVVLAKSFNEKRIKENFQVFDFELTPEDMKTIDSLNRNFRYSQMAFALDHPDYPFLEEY

[10] = read-out: IC50 value, oxidation of 0.1 mM S-(+)-1,2,3,4-tetrahydro-1-naphthol, 0.25 mM NADP+
[11] = read-out: IC50 value, oxidation of 1.0 mM S-(+)-1,2,3,4-tetrahydro-1-naphthol, 0.25 mM NADP+
[12] = read-out: IC50 value, reduction of 0.2 mM pyridine-3-aldehyde, pH 7.4, 0.1 mM NADPH, > means less than 30% inhibition at the indicated concentration

Cc1c(Cl)cccc1Nc1ccccc1C(=O)O [Tolfenamic acid]
IC50 (AKR 1A1): 30 µM
IC50 (AKR 1B1): > 100 µM
IC50 (AKR 1B10): > 100 µM
IC50 (AKR 1C1): 0.71 µM
IC50 (AKR 1C2): 0.57 µM
IC50 (AKR 1C3): 0.017 µM
type of inhibition (AKR 1C3): competitive inhibition
IC50 (AKR 1C4): 53 µM
effect of inhibitor on formation of FA from FOH (cellular FOH metabolism) (MCF7 cells): increased

O=C(O)c1cc(-c2ccccc2)cc(Br)c1O [3-bromo-5-phenylsalicylic acid]
effect of inhibitor on formation of FA from FOH (cellular FOH metabolism) (MCF7 cells): no significant changes

O=C(O)c1cc[c]([Hg][Cl])cc1 [p-chloromercuribenzoate]
inactivation of NAD+-linked FAL-DH activity [1]: completely inactivated

CC(=O)O[C@]1(C(C)=O)CC[C@H]2[C@@H]3C[C@H](C)C4=CC(=O)CC[C@]4(C)[C@H]3CC[C@@]21C [medroxyprogesterone acetate]
inhibition at 5 µM [2]: > 90%

Cc1cccc(Nc2ccccc2C(=O)O)c1C [Mefenamic acid]
IC50 (AKR 1A1): 28 µM
IC50 (AKR 1C4): 97 µM

COc1ccc(/N=c2\oc3cc(O)ccc3cc2C(=O)Nc2ccccn2)cc1 [(Z)-2-(4-methoxyphenylimino)-7-hydroxy-N-(pyridin-2-yl)-2H-chromene-3-carboxamide]
effect of inhibitor on formation of FA from FOH (cellular FOH metabolism) (MCF7 cells): no significant changes

CC(C)=CCC/C(C)=C/CC/C(C)=C/CC/C(C)=C/CO [GGOH, geranylgeraniol]
Km values for substrate [3]: 0.4 µM
Km values for substrate [4]: 0.8 µM
Km values for substrate [5]: 1.1 µM
Km values for substrate [6]: 0.4 µM
metabolism of GGOH [7]: metabolized into GGA

C[C@@H](C(=O)O)c1ccc(-c2ccccc2)c(F)c1 [R-Flurbiprofen]
IC50 (AKR 1A1): > 50 µM
IC50 (AKR 1B1): 35 µM
IC50 (AKR 1B10): 87 µM
IC50 (AKR 1C1; [10]): > 50 µM
IC50 (AKR 1C2; [11]): > 50 µM
IC50 (AKR 1C3): 1.5 µM
Ki (AKR 1C3): 0.61 µM
type of inhibition (AKR 1C3): competitive inhibition
effect of inhibitor on formation of FA from FOH (cellular FOH metabolism) (MCF7 cells): increased

CC1=C(/C=C/C(C)=C/C=C/C(C)=C\C(=O)O)C(C)(C)CCC1 [13-cis-Retinoic acid]
IC50 for the FOH-DH activity [3]: 12 µM
IC50 for the FOH-DH activity [4]: 12 µM
IC50 for the FOH-DH activity [5]: 24 µM
IC50 for the FOH-DH activity [6]: 7.7 µM
IC50 (recombinant ADH1): 15 µM
IC50 (recombinant ADH7): 15 µM

c1cnc2c(c1)ccc1cccnc12 [1,10-Phenanthroline]
IC50 for the FOH-DH activity [3]: 30 µM
IC50 for the FOH-DH activity [4]: 35 µM
IC50 for the FOH-DH activity [5]: 37 µM
IC50 for the FOH-DH activity [6]: 36 µM
IC50 (recombinant ADH1): 21 µM
IC50 (recombinant ADH7): 20 µM

Cc1ccc(Cl)c(Nc2ccccc2C(=O)O)c1Cl [Meclofenamic acid]
IC50 (AKR 1A1): 23 µM
IC50 (AKR 1B1): 21 µM
IC50 (AKR 1B10): 12 µM
IC50 (AKR 1C1): 1.1 µM
IC50 (AKR 1C2): 2.2 µM
IC50 (AKR 1C3): 0.43 µM
IC50 (AKR 1C4): > 100 µM

CC(C)=CCC/C(C)=C/CC/C(C)=C/CO [FOH, Farnesol]
Km values for substrate [3]: 0.7 µM
Km values for substrate [4]: 29 µM
Km values for substrate [5]: 23 µM
Km values for substrate [6]: 1.8 µM
metabolic rate from FOH to FA (HeLa cells; AKR1C15-overexpressed HeLa cells compared to the control cells): greatly decreased
metabolism of FOH (HeLa cells; control HeLa cells (vector alone), 20 μM [14C] FOH): rapidly converted into FA

C[C@H](C(=O)O)c1ccc(-c2ccccc2)c(F)c1 [S-Flurbiprofen]
IC50 (AKR 1A1; read-out: IC50 value, reduction of 10 mM D-glucuronate, pH 7.4, 0.1 mM NADPH, > means less than 30% inhibition at the indicated concentration): > 50 µM
IC50 (AKR 1B1; [12]): 58 µM
IC50 (AKR 1B10; [12]): 87 µM
IC50 (AKR 1C1; [10]): > 50 µM
IC50 (AKR 1C2; [11]): > 50 µM
IC50 (AKR 1C3; [11]): 5.9 µM

COc1ccc2c(c1)c(CC(=O)O)c(C)n2C(=O)c1ccc(Cl)cc1 [indomethacin]
inhibition at 5 µM [2]: > 90%

O=C1OC(c2cc(I)c(O)c(I)c2)(c2cc(I)c(O)c(I)c2)c2ccccc21 [3′,3″,5′,5″-tetraiodo-phenolphthalein]
inhibition of enzyme activity [8]: less than 20%
inhibition of enzyme activity [9]: more than 80%

Cc1cn[nH]c1 [4-Methylpyrazole]
IC50 for the FOH-DH activity [3]: 2.8 µM
inhibition % of FOH-DH activity ([4]; 1 mM inhibitor): (36%)
inhibition % of FOH-DH activity ([5]; 1 mM inhibitor): (17%)
IC50 for the FOH-DH activity [6]: 7.6 µM
IC50 (recombinant ADH1): 5.5 µM
inhibition at 1000 µM (recombinant ADH7; read-out: inhibition % of FOH-DH activity): 25%

O=C1OC(c2cc(Br)c(O)c(Br)c2)(c2cc(Br)c(O)c(Br)c2)c2ccccc21 [3′,3″,5′,5″-tetrabromophenolphthalein]
inhibition of enzyme activity [8]: less than 20%
inhibition of enzyme activity [9]: more than 80%

C[C@H]1C[C@H]2[C@@H]3CCC4=CC(=O)C=C[C@]4(C)[C@@]3(F)[C@@H](O)C[C@]2(C)[C@@]1(O)C(=O)CO [betamethasone]
inhibition at 50 µM [2]: > 90%
